From patent US20260242398A1, “BENZOPYRIMIDIN-4(3H)-ONES AS PI3K INHIBITORS” (OnKure, Inc., priority 2022, published 2026)
Read-outs that look alike come from different tables or passages of the source.

Columns and labels:
Type in all cases: cell-based
[1] = tested on: SKBR3 cells express WT PI3Ka; assay: In vitro cell proliferation (CellTiter-Glo, 72 hours), SKBR3 cells; conditions: inhibition of proliferation
Method: (§1) In Vitro Cell Proliferation: Determination of EC50 Values for Inhibition of Proliferation in T47D Cells Expressing Mutant PI3Ka (H1047R) Mutation and SKBR3 Cells Express WT PI3Ka.
(§2) T47D or SKBR3 cells were trypsinized, resuspended in culture media and seeded onto assay ready plates. T47D culture media consisted of RPMI, 10% FBS and Insulin (0.2 units/mL). SKBR3 culture media consisted of McCoys 5a and 10% FBS. Cells were seeded at a density of 1,500 cells/well and dispensed in 50 uL onto 384 well assay ready plates (Corning, 89089-790). Assay ready plates had previously been stamped with 10-point dilutions of compounds of interest, as well as controls. The Echo655 is used to stamp plates at 40 nL of compound or DMSO. Cells were grown for 72 hours at 37° Celsius and 5% CO2. After 72 hours, cells were equilibrated at room temperature for 15 minutes. 30 uL of CellTiter-Glo reagent is added to the plate, which is then shaken for 30 minutes at temperature at 300-500 rpm. Cells are then read on an Envision plate reader. The percentage of inhibition of proliferation was calculated using the following formula: % Inhibition=100×(LumD−LumSample)/(LumD−LumInh), where D is obtained from cells treated with 0.1% DMSO only; Inh is obtained from cells treated with 10 uM Alpelisib. The effective concentration achieving 50% inhibition of proliferation (EC50) is calculated by fitting the Curve using XWfit (v5.3.1.3), equation 201: Y=Bottom+(Top−Bottom)/(1+10^((Log EC50−X)*HillSlope)).

[2] = tested on: T47D cells expressing mutant PI3Ka (H1047R); assay: In vitro cell proliferation (CellTiter-Glo, 72 hours), T47D cells; conditions: inhibition of proliferation, read-out: Avg T-47D EC50
Method: as §1, §2

[3] = tested on: phosphorylation of AKT (pAKT) in T47D cells expressing mutant PI3Ka (H1047R); assay: In vitro cell pAKT (Ser473) HTRF, T47D cells; conditions: inhibition of pAKT, 6 hour, read-out: Avg T-47D IC50
Method: (§3) In Vitro Cell pAKT: Determination of IC50 Values for Inhibition of Phosphorylation of AKT (pAKT) in T47D Cells Expressing Mutant PI3Ka (H1047R) Mutation and SKBR3 Cells Express WT PI3Ka.
(§4) T47D or SKBR3 cells were trypsinized, resuspended in culture media and seeded onto assay ready plates. T47D culture media consisted of RPMI, 10% FBS and Insulin (0.2 units/mL). SKBR3 culture media consisted of McCoy's 5a and 10% FBS. Cells were seeded at a density of 5000 cells/well and dispensed in 12.5 uL onto 384 well assay ready plates (Perkin Elmer, 6008238)). Assay ready plates had previously been stamped with 10-point dilutions of compounds of interest, as well as controls. The Echo655 is used to stamp plates at 12.5 nL of compound or DMSO. Cells were grown for 6 hour at 37° Celsius and 5% CO2. After 6 hour, 4 uL of Lysis buffer reagent was added to the plate, which was then centrifuged for 1 minute at 1000 rpm. Then the plate was incubated at room temperature for 30 minutes. After 30 minutes, 4 uL of antibody mix containing Eu Cryptate, d2 Cryptate, and detection buffer, was added to the plate. The plate was centrifuged for 1 minute at 1000 rpm and then incubated overnight at room temperature. The plate was read on an Envision plate reader using the HTRF protocol. The percentage of inhibition of AKT phosphorylation was calculated using the following formula: % Inhibition=100×(pAKTHC−pAKTSample)/(pAKTHC−pAKTLC)), where pAKTHC is obtained from cells treated with 0.1% DMSO only; pAKTLC is obtained from cells treated with 10 uM Alpelisib. The IC50 (concentration achieving 50% inhibition of pAKT) is calculated by fitting the Curve using XWfit (v5.3.1.3), equation 201: Y=Bottom+(Top−Bottom)/(1+10^((Log IC50−X)*HillSlope)).

[4] = tested on: phosphorylation of AKT (pAKT) in SKBR3 cells express WT PI3Ka; assay: In vitro cell pAKT (Ser473) HTRF, SKBR3 cells; conditions: inhibition of pAKT
Method: as §3, §4

SMILES	EC50 [1] [µM]	EC50 [2] [µM]	IC50 [3] [µM]	IC50 ([4]; 6 hour) [µM]	IC50 ([4]; Homo sapiens, SK-BR-3, 6 h) [µM]	EC50 ([1]; Homo sapiens, SK-BR-3, 72 h) [µM]	EC50 ([2]; Homo sapiens, T47D, 72 h) [µM]
Cc1cc(C(C)Nc2ccccc2C(=O)O)c2nc(N3CCCC(C)(C)C3)n(C)c(=O)c2c1 (single isomer, unassigned) [Example 4, 2-((1-(2-(3,3-dimethylpiperidin-1-yl)-3,6-dimethyl-4-oxo-3,4-dihydroquinazolin-8-yl)ethyl)amino)benzoic acid]	> 15	2 to 15	> 15	> 15	–	–	–
Cc1cc(C(C)Nc2ccccc2C(=O)O)c2nc(SCC(C)C)n(C)c(=O)c2c1 (single isomer, unassigned) [Example 40, 2-((1-(2-(isobutylthio)-3,6-dimethyl-4-oxo-3,4-dihydroquinazolin-8-yl)ethyl)amino)benzoic acid]	> 15	2 to 15	1 to 5	> 15	–	–	–
Cc1cc(C(C)Nc2ccccc2C(=O)O)c2nc(N3Cc4ccc(Cl)cc4C3)n(C)c(=O)c2c1 (single isomer, unassigned) [Example 9, 2-((1-(2-(5-chloroisoindolin-2-yl)-3,6-dimethyl-4-oxo-3,4-dihydroquinazolin-8-yl)ethyl)amino)benzoic acid]	> 15	0.5 to 2	1 to 5	–	> 15	–	–
CC(Nc1ccccc1C(=O)O)c1cc(Cl)cc2c(=O)n(C)c(N3CCC(C)(C)CC3)nc12 (single isomer, unassigned) [Example 22, 2-((1-(6-chloro-2-(4,4-dimethylpiperidin-1-yl)-3-methyl-4-oxo-3,4-dihydroquinazolin-8-yl)ethyl)amino)benzoic acid]	> 15	0.5 to 2	0.001 to 1	–	> 15	–	–
CC(Nc1ccccc1C(=O)O)c1cc(Cl)cc2c(=O)n(C)c(N3CCN(CC(F)(F)F)CC3)nc12 (single isomer, unassigned) [Example 26, 2-((1-(6-chloro-3-methyl-4-oxo-2-(4-(2,2,2-trifluoroethyl)piperazin-1-yl)-3,4-dihydroquinazolin-8-yl)ethyl)amino)benzoic acid]	–	0.5 to 2	0.001 to 1	–	> 15	> 15	–
Cc1cc(C(C)Nc2ccccc2C(=O)O)c2nc(N3Cc4ccc(C#N)cc4C3)n(C)c(=O)c2c1 (single isomer, unassigned) [Example 18, 2-((1-(2-(5-cyanoisoindolin-2-yl)-3,6-dimethyl-4-oxo-3,4-dihydroquinazolin-8-yl)ethyl)amino)benzoic acid]	> 15	> 15	> 15	> 15	–	–	–
CC(Nc1ccccc1C(=O)O)c1cc(C(F)(F)F)cc2c(=O)n(C)c(N3CCN(CC(F)(F)F)CC3)nc12 (single isomer, unassigned) [Example 37, 2-((1-(3-methyl-4-oxo-2-(4-(2,2,2-trifluoroethyl)piperazin-1-yl)-6-(trifluoromethyl)-3,4-dihydroquinazolin-8-yl)ethyl)amino)benzoic acid]	–	0.5 to 2	0.001 to 1	–	> 15	2 to 15	–
Cc1cc(C(C)Nc2ccc(Cl)cc2C(=O)O)c2nc(N3Cc4ccc(F)cc4C3)n(C)c(=O)c2c1 (single isomer, unassigned) [Example 13, 5-chloro-2-((1-(2-(5-fluoroisoindolin-2-yl)-3,6-dimethyl-4-oxo-3,4-dihydroquinazolin-8-yl)ethyl)amino)benzoic acid]	> 15	2 to 15	> 15	–	> 15	–	–
Cc1cc(C(C)Nc2ccccc2C(=O)O)c2nc(OCC(C)C)n(C)c(=O)c2c1 (single isomer, unassigned) [Example 11, 2-((1-(2-isobutoxy-3,6-dimethyl-4-oxo-3,4-dihydroquinazolin-8-yl)ethyl)amino)benzoic acid]	–	0.5 to 2	1 to 5	–	> 15	> 15	–
Cc1cc(C(C)Nc2ccccc2C(=O)O)c2nc(SCc3ccc(Cl)c(OC(F)(F)F)c3)n(C)c(=O)c2c1 (single isomer, unassigned) [Example 32, 2-((1-(2-((4-chloro-3-(trifluoromethoxy)benzyl)thio)-3,6-dimethyl-4-oxo-3,4-dihydroquinazolin-8-yl)ethyl)amino)benzoic acid]	2 to 15	2 to 15	> 15	> 15	–	–	–
CC(Nc1ccccc1C(=O)O)c1cc(Cl)cc2c(=O)n(C)c(N3CCN(CC(F)(F)F)CC3)nc12 (single isomer, unassigned) [Example 27, 2-((1-(6-chloro-3-methyl-4-oxo-2-(4-(2,2,2-trifluoroethyl)piperazin-1-yl)-3,4-dihydroquinazolin-8-yl)ethyl)amino)benzoic acid]	> 15	> 15	> 15	> 15	–	–	–
Cc1cc(C(C)Nc2ccccc2C(=O)O)c2nc(N3Cc4ccc(C#N)cc4C3)n(C)c(=O)c2c1 (single isomer, unassigned) [Example 17, 2-((1-(2-(5-cyanoisoindolin-2-yl)-3,6-dimethyl-4-oxo-3,4-dihydroquinazolin-8-yl)ethyl)amino)benzoic acid]	–	0.001 to 0.5	0.001 to 1	–	> 15	> 15	–
Cc1cc(C(C)Nc2ccc(F)cc2C(=O)O)c2nc(N3CCC(C)(C)CC3)n(C)c(=O)c2c1 (single isomer, unassigned) [Example 30, 2-((1-(2-(4,4-dimethylpiperidin-1-yl)-3,6-dimethyl-4-oxo-3,4-dihydroquinazolin-8-yl)ethyl)amino)-5-fluorobenzoic acid]	2 to 15	2 to 15	> 15	> 15	–	–	–
Cc1cc(C(C)Nc2ccccc2C(=O)O)c2nc(SCC(C)C)n(C)c(=O)c2c1 (single isomer, unassigned) [Example 39, 2-((1-(2-(isobutylthio)-3,6-dimethyl-4-oxo-3,4-dihydroquinazolin-8-yl)ethyl)amino)benzoic acid]	–	> 15	> 15	–	> 15	> 15	–
Cc1cc(C(C)Nc2ccc(C#N)cc2C(=O)O)c2nc(N3CCC(C)(C)CC3)n(C)c(=O)c2c1 (single isomer, unassigned) [Example 15, 5-cyano-2-((1-(2-(4,4-dimethylpiperidin-1-yl)-3,6-dimethyl-4-oxo-3,4-dihydroquinazolin-8-yl)ethyl)amino)benzoic acid]	–	–	–	–	–	2 to 15	2 to 15
Cc1cc(C(C)Nc2ccc(C#N)cc2C(=O)O)c2nc(N3CCC(C)(C)CC3)n(C)c(=O)c2c1 (single isomer, unassigned) [Example 16, 5-cyano-2-((1-(2-(4,4-dimethylpiperidin-1-yl)-3,6-dimethyl-4-oxo-3,4-dihydroquinazolin-8-yl)ethyl)amino)benzoic acid]	2 to 15	2 to 15	–	–	–	–	–
Cc1cc(C(C)Nc2ccccc2C(=O)O)c2nc(N3Cc4ccc(C(N)=O)cc4C3)n(C)c(=O)c2c1 (centres unmarked) [Example 19, 2-((1-(2-(5-carbamoylisoindolin-2-yl)-3,6-dimethyl-4-oxo-3,4-dihydroquinazolin-8-yl)ethyl)amino)benzoic acid]	–	–	–	–	–	> 15	0.5 to 2
